Laboratory results from patent US6737383B1, “Herbicidal oxadiazolidines” (priority 1999, dated 2004).

How the values were obtained:
cocklebur = test: Test B pre/postemergence cocklebur; type: in vivo, Xanthium strumarium
Method in brief: (§1)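 Test chemicals in a non-phytotoxic solvent mixture with surfactant were sprayed preemergence onto planted seeds and postemergence onto plants 2 to 18 cm tall (1- to 4-leaf stage). After twelve to sixteen days in a greenhouse, injury was visually rated against untreated controls from 0 (no effect) to 10 (complete control).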

rape = test: Test B pre/postemergence rape; type: in vivo, Brassica napus
Method in brief: as §1

rice = test: Test B flood test rice; type: in vivo, Oryza sativa; conditions: Rate 250 g/ha; Pre-emergence (flood test species); scale 0 to 10, 0 is no effect, 10 is complete control
Method in brief: (§2)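 Each value is a visual injury score relative to controls, with 10 meaning complete control and 0 no effect. Evaluation took place twelve to sixteen days after the 2-leaf-stage plants were treated and kept in the greenhouse.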

smallflower flatsedge = test: Test B flood test smallflower flatsedge; type: in vivo, Cyperus difformis; conditions: Rate 250 g/ha; Pre-emergence (flood test species); scale 0 to 10, 0 is no effect, 10 is complete control
Method in brief: as §2

surinam grass = test: Test B pre/postemergence surinam grass; type: in vivo, Brachiaria decumbens
Method in brief: as §1

bedstraw = test: Test B pre/postemergence bedstraw; type: in vivo, Galium aparine
Method in brief: as §1

sugar beet = test: Test B pre/postemergence sugar beet; type: in vivo, Beta vulgaris; conditions: for Plant response rating, Sugarbeets: Postemergence
Method in brief: as §1

velvetleaf = test: Test B pre/postemergence velvetleaf; type: in vivo, Abutilon theophrasti; conditions: for Plant response rating, Velvetleaf: Postemergence
Method in brief: as §1

wheat = test: Test B pre/postemergence wheat; type: in vivo, Triticum aestivum; conditions: for Plant response rating, Wheat: Postemergence
Method in brief: as §1

crabgrass = test: Test B pre/postemergence crabgrass; type: in vivo, Digitaria sanguinalis
Method in brief: as §1

corn = test: Test B pre/postemergence corn; type: in vivo, Zea mays
Method in brief: as §1

morningglory = test: Test B pre/postemergence morningglory; type: in vivo, Ipomoea hederacea
Method in brief: as §1

duck salad = test: Test B flood test duck salad; type: in vivo, Heteranthera limosa; conditions: Rate 250 g/ha; Pre-emergence (flood test species); scale 0 to 10, 0 is no effect, 10 is complete control
Method in brief: as §2

giant foxtail = test: Test B pre/postemergence giant foxtail; type: in vivo, Setaria faberii
Method in brief: as §1

purple nutsedge = test: Test B pre/postemergence purple nutsedge; type: in vivo, Cyperus rotundus
Method in brief: as §1

pigweed = test: Test B pre/postemergence pigweed; type: in vivo, Amaranthus retroflexus; conditions: for Plant response rating, Redroot pigweed: Postemergence
Method in brief: as §1

wild oat = test: Test B pre/postemergence wild oat; type: in vivo, Avena fatua; conditions: for Plant response rating, Wild oats: Postemergence
Method in brief: as §1

blackgrass = test: Test B pre/postemergence blackgrass; type: in vivo, Alopecurus myosuroides
Method in brief: as §1

bamyardgrass = test: Test B flood test barnyardgrass; type: in vivo, Echinochloa crus-galli; conditions: Rate 250 g/ha; Pre-emergence (flood test species); scale 0 to 10, 0 is no effect, 10 is complete control
Method in brief: as §2

soybean = test: Test B pre/postemergence soybean; type: in vivo, Glycine max; conditions: for Plant response rating, Soybean: Postemergence
Method in brief: as §1

[1] = Postemergence, Rate 62 g/ha, scale of 0 to 10, 0 is no effect, 10 is complete control
[2] = Postemergence, Rate 125 g/ha, scale 0 to 10, 0 is no effect, 10 is complete control
[3] = Postemergence, Rate 500 g/ha, scale of 0 to 10 where 0 is no effect and 10 is complete control
[4] = Preemergence, Rate 62 g/ha, scale 0 to 10 (0 no effect, 10 complete control)
[5] = Preemergence, Rate 125 g/ha, scale 0 to 10, 0 is no effect, 10 is complete control
[6] = Preemergence, Rate 500 g/ha, scale of 0 to 10 where 0 is no effect and 10 is complete control
[7] = Rate 250 g/ha, Postemergence, scale of 0 to 10 where 0 is no effect and 10 is complete control
[8] = Rate 500 g/ha, scale of 0 to 10 where 0 is no effect and 10 is complete control
[9] = Rate 250 g/ha, scale of 0 to 10 where 0 is no effect and 10 is complete control

## Cc1noc(C)c1Cn1c(=O)on(C(=O)N(c2ccccc2)C(C)C)c1=O [Compound 569]
cocklebur; [1]
  Cocklebur plant response rating: 0
cocklebur; [2]
  Cocklebur plant response rating: 2
cocklebur; [3]
  Plant response rating, Cocklebur: 2
cocklebur; [4]
  Cocklebur plant response rating: 0
cocklebur; [5]
  Cocklebur plant response rating: 0
cocklebur; Preemergence, Rate 250 g/ha
  Cocklebur plant response rating (0 to 10 scale): 0
cocklebur; [6]
  Cocklebur plant response rating: 0
cocklebur; [7]
  Plant response rating, Cocklebur: 2
rape; [1]
  Rape plant response rating: 0
rape; [2]
  Rape plant response rating: 0
rape; [3]
  Plant response rating, Rape: 0
rape; [4]
  Rape plant response rating: 0
rape; [5]
  Rape plant response rating: 0
rape; Preemergence, Rate 250 g/ha
  Rape plant response rating (0 to 10 scale): 4
rape; [6]
  Rape plant response rating: 9
rape; [7]
  Plant response rating, Rape: 0
rice
  Rice plant response rating: 0
Smallflower flatsedge
  S. Flatsedge plant response rating: 0
Surinam grass; [1]
  B. signalgrass plant response rating: 0
Surinam grass; [2]
  B. signalgrass plant response rating: 0
Surinam grass; [3]
  Plant response rating, B. signalgrass: 4
Surinam grass; [4]
  B. signalgrass plant response rating: 0
Surinam grass; [5]
  B. signalgrass plant response rating: 9
Surinam grass; Preemergence, Rate 250 g/ha
  B. signalgrass plant response rating (0 to 10 scale, 0 is no effect, 10 is complete control): 9
Surinam grass; [6]
  B. signalgrass plant response rating: 9
Surinam grass; [7]
  Plant response rating, B. signalgrass: 0
bedstraw; [1]
  Bedstraw plant response rating: 0
bedstraw; [4]
  Bedstraw plant response rating: 0
bedstraw; [5]
  Bedstraw plant response rating: 3
bedstraw; Preemergence, Rate 250 g/ha
  Bedstraw plant response rating (0 to 10 scale): 0
bedstraw; [6]
  Bedstraw plant response rating: 0
Sugar beet; [8]
  Plant response rating, Sugarbeets: 0
Sugar beet; [4]
  Sugarbeets plant response rating: 0
Sugar beet; [5]
  Sugarbeets plant response rating: 0
Sugar beet; Preemergence, Rate 250 g/ha
  Sugarbeets plant response rating (0 to 10 scale): 0
Sugar beet; [6]
  Sugarbeets plant response rating: 3
Sugar beet; [9]
  Plant response rating, Sugarbeets: 0
velvetleaf; [8]
  Plant response rating, Velvetleaf: 3
velvetleaf; [4]
  Velvetleaf plant response rating: 0
velvetleaf; [5]
  Velvetleaf plant response rating: 0
velvetleaf; Preemergence, Rate 250 g/ha
  Velvetleaf plant response rating (0 to 10 scale): 0
velvetleaf; [6]
  Velvetleaf plant response rating: 7
velvetleaf; [9]
  Plant response rating, Velvetleaf: 2
wheat; [8]
  Plant response rating, Wheat: 0
wheat; [4]
  Wheat plant response rating: 0
wheat; [5]
  Wheat plant response rating: 0
wheat; Preemergence, Rate 250 g/ha
  Wheat plant response rating (0 to 10 scale): 0
wheat; [6]
  Wheat plant response rating: 4
wheat; [9]
  Plant response rating, Wheat: 0
crabgrass; [1]
  Crabgrass plant response rating: 0
crabgrass; [2]
  Crabgrass plant response rating: 0
crabgrass; [3]
  Plant response rating, Crabgrass: 6
crabgrass; [4]
  Crabgrass plant response rating: 7
crabgrass; [5]
  Crabgrass plant response rating: 9
crabgrass; Preemergence, Rate 250 g/ha
  Crabgrass plant response rating (0 to 10 scale): 9
crabgrass; [6]
  Crabgrass plant response rating: 9
crabgrass; [7]
  Plant response rating, Crabgrass: 6
corn; [1]
  Corn plant response rating: 0
corn; [2]
  Corn plant response rating: 0
corn; [3]
  Plant response rating, Corn: 2
corn; [4]
  Corn plant response rating: 0
corn; [5]
  Corn plant response rating: 0
corn; Preemergence, Rate 250 g/ha
  Corn plant response rating (0 to 10 scale): 0
corn; [6]
  Corn plant response rating: 9
corn; [7]
  Plant response rating, Corn: 0
morningglory; [1]
  Morningglory plant response rating: 3
morningglory; [2]
  Morningglory plant response rating: 10
morningglory; [3]
  Plant response rating, Morningglory: 10
morningglory; [4]
  Morningglory plant response rating: 0
morningglory; [5]
  Morningglory plant response rating: 0
morningglory; Preemergence, Rate 250 g/ha
  Morningglory plant response rating (0 to 10 scale): 0
morningglory; [6]
  Morningglory plant response rating: 0
morningglory; [7]
  Plant response rating, Morningglory: 10
Duck salad
  Ducksalad plant response rating: 0
Giant foxtail; [1]
  Giant foxtail plant response rating: 0
Giant foxtail; [2]
  Giant foxtail plant response rating: 3
Giant foxtail; [3]
  Plant response rating, Giant foxtail: 4
Giant foxtail; [4]
  Giant foxtail plant response rating: 9
Giant foxtail; [5]
  Giant foxtail plant response rating: 9
Giant foxtail; Preemergence, Rate 250 g/ha
  Giant foxtail plant response rating (0 to 10 scale): 9
Giant foxtail; [6]
  Giant foxtail plant response rating: 10
Giant foxtail; [7]
  Plant response rating, Giant foxtail: 4
Purple nutsedge; [1]
  Nutsedge plant response rating: 0
Purple nutsedge; [2]
  Nutsedge plant response rating: 0
Purple nutsedge; [3]
  Plant response rating, Nutsedge: 0
Purple nutsedge; [4]
  Nutsedge plant response rating: 0
Purple nutsedge; [5]
  Nutsedge plant response rating: 0
Purple nutsedge; Preemergence, Rate 250 g/ha
  Nutsedge plant response rating (0 to 10 scale): 0
Purple nutsedge; [6]
  Nutsedge plant response rating: 0
Purple nutsedge; [7]
  Plant response rating, Nutsedge: 0
pigweed; [8]
  Plant response rating, Redroot pigweed: 4
pigweed; [4]
  Redroot pigweed plant response rating: 7
pigweed; [5]
  Redroot pigweed plant response rating: 9
pigweed; Preemergence, Rate 250 g/ha
  Redroot pigweed plant response rating (0 to 10 scale): 9
pigweed; [6]
  Redroot pigweed plant response rating: 10
pigweed; [9]
  Plant response rating, Redroot pigweed: 4
Wild oat; [8]
  Plant response rating, Wild oats: 0
Wild oat; [4]
  Wild oats plant response rating: 0
Wild oat; [5]
  Wild oats plant response rating: 0
Wild oat; Preemergence, Rate 250 g/ha
  Wild oats plant response rating (0 to 10 scale): 6
Wild oat; [6]
  Wild oats plant response rating: 9
Wild oat; [9]
  Plant response rating, Wild oats: 0
blackgrass; [1]
  Blackgrass plant response rating: 0
blackgrass; [2]
  Blackgrass plant response rating: 0
blackgrass; [3]
  Plant response rating, Blackgrass: 3
blackgrass; [4]
  Blackgrass plant response rating: 0
blackgrass; [5]
  Blackgrass plant response rating: 0
blackgrass; Preemergence, Rate 250 g/ha
  Blackgrass plant response rating (0 to 10 scale): 9
blackgrass; [6]
  Blackgrass plant response rating: 9
blackgrass; [7]
  Plant response rating, Blackgrass: 2
bamyardgrass
  Barnyardgrass plant response rating: 0
soybean; [8]
  Plant response rating, Soybean: 4
soybean; [4]
  Soybean plant response rating: 0
soybean; [5]
  Soybean plant response rating: 0
soybean; Preemergence, Rate 250 g/ha
  Soybean plant response rating (0 to 10 scale): 0
soybean; [6]
  Soybean plant response rating: 0
soybean; [9]
  Plant response rating, Soybean: 4
